Here are results for 25 molecules from US20250376468A1, “PYRAZOLO[1,5-a]PYRIDINE DERIVATIVES FOR TREATING TRPM3-MEDIATED DISORDERS” (Katholieke Universiteit Leuven, priority 2022, published 2025).

Structures are written as SMILES. Some results are limits rather than exact numbers.

This assay deals with T1, mouse TRPM3α2 (mTRPM3) ion channel (Mus musculus, UniProt J9SQF3).
T1 construct: expressed in transfected cells; host or cells: flip-in HEK293 (Flp-In HEK293) overexpressing mTRPM3alpha2
T1 sequence (J9SQF3 1-1709 isoform J9SQF3-12): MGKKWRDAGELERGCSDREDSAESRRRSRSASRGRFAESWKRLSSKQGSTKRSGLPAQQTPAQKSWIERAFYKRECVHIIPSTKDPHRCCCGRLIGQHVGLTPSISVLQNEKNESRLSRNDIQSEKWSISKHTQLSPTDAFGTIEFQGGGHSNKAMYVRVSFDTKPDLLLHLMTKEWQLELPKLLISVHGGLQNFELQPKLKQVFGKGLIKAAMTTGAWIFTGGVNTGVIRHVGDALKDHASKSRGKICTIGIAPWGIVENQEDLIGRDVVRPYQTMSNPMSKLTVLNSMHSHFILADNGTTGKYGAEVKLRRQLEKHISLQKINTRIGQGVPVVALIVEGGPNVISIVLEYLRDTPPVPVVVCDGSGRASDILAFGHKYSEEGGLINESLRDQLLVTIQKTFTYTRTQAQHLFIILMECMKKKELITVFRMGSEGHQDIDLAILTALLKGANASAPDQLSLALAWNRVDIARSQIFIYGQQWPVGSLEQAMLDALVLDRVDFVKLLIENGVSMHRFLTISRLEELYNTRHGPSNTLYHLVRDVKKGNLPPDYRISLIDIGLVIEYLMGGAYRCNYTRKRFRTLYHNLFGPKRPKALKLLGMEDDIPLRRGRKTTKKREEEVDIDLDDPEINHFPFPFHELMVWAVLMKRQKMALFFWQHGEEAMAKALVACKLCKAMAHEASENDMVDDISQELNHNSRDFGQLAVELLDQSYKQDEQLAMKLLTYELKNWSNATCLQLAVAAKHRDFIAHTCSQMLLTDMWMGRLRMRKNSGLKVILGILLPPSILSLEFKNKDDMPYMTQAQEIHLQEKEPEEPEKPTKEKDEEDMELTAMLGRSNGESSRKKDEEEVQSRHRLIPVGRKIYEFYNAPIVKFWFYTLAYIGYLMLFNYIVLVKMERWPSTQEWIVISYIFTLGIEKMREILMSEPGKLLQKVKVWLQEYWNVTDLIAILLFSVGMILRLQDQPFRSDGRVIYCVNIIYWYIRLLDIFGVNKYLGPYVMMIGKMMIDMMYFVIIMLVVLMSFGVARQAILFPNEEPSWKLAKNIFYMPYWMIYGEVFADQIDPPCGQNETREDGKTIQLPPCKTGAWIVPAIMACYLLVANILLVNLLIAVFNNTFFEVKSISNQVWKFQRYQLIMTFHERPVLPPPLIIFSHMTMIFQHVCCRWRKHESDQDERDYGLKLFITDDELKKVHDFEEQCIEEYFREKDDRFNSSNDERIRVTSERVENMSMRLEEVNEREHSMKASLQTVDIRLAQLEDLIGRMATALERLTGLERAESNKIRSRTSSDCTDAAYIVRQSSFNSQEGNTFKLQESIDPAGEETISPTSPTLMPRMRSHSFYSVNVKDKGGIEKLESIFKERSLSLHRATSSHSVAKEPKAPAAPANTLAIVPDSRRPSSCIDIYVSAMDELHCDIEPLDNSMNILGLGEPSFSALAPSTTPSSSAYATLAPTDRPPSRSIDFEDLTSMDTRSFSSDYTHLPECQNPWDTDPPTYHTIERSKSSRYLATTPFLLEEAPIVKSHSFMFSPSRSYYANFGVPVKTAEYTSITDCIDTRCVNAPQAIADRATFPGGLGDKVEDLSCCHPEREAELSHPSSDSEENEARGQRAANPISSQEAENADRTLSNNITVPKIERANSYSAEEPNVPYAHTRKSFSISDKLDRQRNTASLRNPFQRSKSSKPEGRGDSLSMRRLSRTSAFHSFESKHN
Description: TRPM3 ion channel driven Ca2+ uptake, Fluo-4 AM assay, stimulated with pregnenolone sulfate (50 μM). It counts as cell-based. To be noted: TRPM3 overexpressing flip-in HEK293 cells, PS 50 μM, 2.4 mM Ca2+. On the procedure: In order to monitor the inhibition of the mouse TRPM3α2 (mTRPM3) ion channel by the compounds of the invention, a cellular system making use of an mTRPM3alpha2 or hTRPM3 overexpressing cell line (flip-in HEK293) was used. The TRPM3 channel was stimulated/opened with Pregnenolone sulfate (PS) (50 μM) which results in Ca^2+ influx.
For mTRPM3, the intracellular Ca^2+ was measured with a Calcium responsive dye, Fluor-4 AM ester (Invitrogen). Cells were cultured until a confluence of 80-90%, washed with Versene (Invitrogen) and detached from the surface by a short incubation with 0.05% Trypsin (Invitrogen). The […] was stopped by the addition of complete cell culture medium (DMEM, glutamax, 10% FCS, NEAA, Pen-Strep). Cells were collected and resuspended in Krebs buffer without Calcium at RT.
Prior the cell seeding (±2000 cells/well into a black, 384 well plate (Greiner)) the diluted compound was added in the assay plate, together with the PS dissolved in Krebs buffer containing Calcium. […] Directly after cell addition the plates were read on an Envision fluorescence reader (Perkin Elmer) by an Excitation of 485 nm and emission at 535 nm.
Channel inhibition was calculated compared to a non-PS stimulated control versus a condition stimulated with PS (50 μM) with vehicle. The ability of the compounds of the invention to inhibit this activity was determined as: Percentage inhibition=[1−((RFU determined for sample with test compound present−RFU determined for sample with positive control inhibitor) divided by (RFU determined in the presence of vehicle−RFU determined for sample with positive control inhibitor))]*100.
The activities of the Example compounds cpd 001-091 tested are depicted in the table below. All tested compounds show an activity in the Fluo-4 AM assay. The activity ranges A, B and C refer to IC50 values in the Fluo-4 AM assay as follows: “A”: IC50<1 μM; “B”: 1 μM≤IC50≤20 μM and “C”: IC50>20 μM.
Take `Cc1nn2ccc(OCc3ccccc3F)cc2c1C(=O)N[C@H](C(N)=O)[C@@H](C)O` [Cpd 007, (2S,3R)-2-({5-[(2-fluorophenyl)methoxy]-2-methylpyrazolo[1,5-a]pyridin-3-yl}formamido)-3-hydroxybutanamide]: the IC50 was under 1 µM.

`Cc1ncsc1COc1ccn2nc(C)c(C(=O)NC(C)(CO)CO)c2c1` [Cpd 008, N-(1,3-dihydroxy-2-methylpropan-2-yl)-2-methyl-5-[(4-methyl-1,3-thiazol-5-yl)methoxy]pyrazolo[1,5-a]pyridine-3-carboxamide] yielded a half-maximal inhibitory concentration (IC50) of 1 to 20 µM.

For the molecule `Cc1ncsc1COc1ccn2nc(C)c(C(=O)N[C@@H](CO)C(N)=O)c2c1` [Cpd 010, (2S)-3-hydroxy-2-({2-methyl-5-[(4-methyl-1,3-thiazol-5-yl)methoxy]pyrazolo[1,5-a]pyridin-3-yl}formamido)propanamide], the IC50 is 1 to 20 µM.

`Cc1nn2ccc(OCc3ccccc3Cl)cc2c1C(=O)N[C@@H](CO)C(N)=O` [Cpd 012, (2S)-2-({5-[(2-chlorophenyl)methoxy]-2-methylpyrazolo[1,5-a]pyridin-3-yl}formamido)-3-hydroxypropanamide] came in with an IC50 of under 1 µM.

Molecule `Cc1nn2ccc(OCc3ccccc3Cl)cc2c1C(=O)NC(C)(C)C(N)=O` [Cpd 013, 2-({5-[(2-chlorophenyl)methoxy]-2-methylpyrazolo[1,5-a]pyridin-3-yl}formamido)-2-methylpropanamide] registered a half-inhibitory concentration (IC50) of 1 to 20 µM.

In the case of `Cc1nn2ccc(OCc3ccccc3Cl)cc2c1C(=O)NC(C)(CO)CO` [Cpd 014, 5-[(2-chlorophenyl)methoxy]-N-(1,3-dihydroxy-2-methylpropan-2-yl)-2-methylpyrazolo[1,5-a]pyridine-3-carboxamide], the IC50 is under 1 µM.

Regarding `Cc1nn2ccc(OCc3ccccc3)cc2c1C(=O)O` [Cpd 033, 5-(benzyloxy)-2-methylpyrazolo[1,5-a]pyridine-3-carboxylic acid], the IC50 was over 20 µM.

Molecule `Cc1nn2ccc(OCC3CC3)cc2c1C(=O)O` [Cpd 034, 5-(cyclopropylmethoxy)-2-methylpyrazolo[1,5-a]pyridine-3-carboxylic acid] displayed an IC50 of over 20 µM.

As to `Cc1nn2ccc(OCc3ccccc3F)cc2c1C(=O)O` [Cpd 035, 5-[(2-fluorophenyl)methoxy]-2-methylpyrazolo[1,5-a]pyridine-3-carboxylic acid], the IC50 is over 20 µM.

The molecule `Cc1nn2ccc(OCc3ccccc3Cl)cc2c1C(=O)O` [Cpd 036, 5-[(2-chlorophenyl)methoxy]-2-methylpyrazolo[1,5-a]pyridine-3-carboxylic acid] had an IC50 of over 20 µM.

`Cc1nn2ccc(OCc3ccccn3)cc2c1C(=O)NCC(F)(F)F` [Cpd 042, 2-methyl-5-[(pyridin-2-yl)methoxy]-N-(2,2,2-trifluoroethyl)pyrazolo[1,5-a]pyridine-3-carboxamide] registered an IC50 of over 20 µM.

The molecule `Cc1nn2ccc(OCc3ccccn3)cc2c1C(=O)NCCO` [Cpd 043, N-(2-hydroxyethyl)-2-methyl-5-[(pyridin-2-yl)methoxy]pyrazolo[1,5-a]pyridine-3-carboxamide] registered an IC50 of over 20 µM.

For the molecule `Cc1nn2ccc(OCc3ccccn3)cc2c1C(=O)NCc1ncc[nH]1` [Cpd 044, N-[(1H-imidazol-2-yl)methyl]-2-methyl-5-[(pyridin-2-yl)methoxy]pyrazolo[1,5-a]pyridine-3-carboxamide], the IC50 lay in the range of 1 to 20 µM.

The molecule `Cc1nn2ccc(OCc3ccccn3)cc2c1C(=O)NCC(C)(C)CN(C)C` [Cpd 045, N-[3-(dimethylamino)-2,2-dimethylpropyl]-2-methyl-5-[(pyridin-2-yl)methoxy]pyrazolo[1,5-a]pyridine-3-carboxamide] yielded an IC50 of 1 to 20 µM.

As for `Cc1nn2ccc(OCc3ccccn3)cc2c1C(=O)NCC(F)(F)c1ccccc1` [Cpd 046, N-(2,2-difluoro-2-phenylethyl)-2-methyl-5-[(pyridin-2-yl)methoxy]pyrazolo[1,5-a]pyridine-3-carboxamide], the IC50 is over 20 µM.

In turn, `Cc1nn2ccc(OCc3ccccn3)cc2c1C(=O)NCc1c(F)cccc1C(F)(F)F` [Cpd 047, N-{[2-fluoro-6-(trifluoromethyl)phenyl]methyl}-2-methyl-5-[(pyridin-2-yl)methoxy]pyrazolo[1,5-a]pyridine-3-carboxamide] returned an IC50 of 1 to 20 µM.

Turning to `Cc1nn2ccc(OCc3ccccn3)cc2c1C(=O)NCc1cccc(OC(F)F)c1` [Cpd 048, N-{[3-(difluoromethoxy)phenyl]methyl}-2-methyl-5-[(pyridin-2-yl)methoxy]pyrazolo[1,5-a]pyridine-3-carboxamide], the IC50 is over 20 µM.

In turn, `Cc1nn2ccc(OCc3ccccn3)cc2c1C(=O)NC1(CO)CC(F)(F)C1` [Cpd 055, N-[3,3-difluoro-1-(hydroxymethyl)cyclobutyl]-2-methyl-5-[(pyridin-2-yl)methoxy]pyrazolo[1,5-a]pyridine-3-carboxamide] came in with an IC50 of 1 to 20 µM.

`Cc1nn2ccc(OCc3ccccn3)cc2c1C(=O)Nc1cc(C(F)(F)F)cnc1O` [Cpd 056, N-[2-hydroxy-5-(trifluoromethyl)pyridin-3-yl]-2-methyl-5-[(pyridin-2-yl)methoxy]pyrazolo[1,5-a]pyridine-3-carboxamide] yielded a concentration for half-maximal inhibition (IC50) of over 20 µM.

Molecule `Cc1nn2ccc(OCc3ccccn3)cc2c1C(=O)NC1(CO)COC(C)(C)OC1` [Cpd 057, N-[5-(hydroxymethyl)-2,2-dimethyl-1,3-dioxan-5-yl]-2-methyl-5-[(pyridin-2-yl)methoxy]pyrazolo[1,5-a]pyridine-3-carboxamide] yielded an IC50 of over 20 µM.

For `Cc1nn2ccc(OCc3ccccn3)cc2c1C(=O)NC1(CO)CC1(F)F` (stereo not shown) [Cpd 071, N-[2,2-difluoro-1-(hydroxymethyl)cyclopropyl]-2-methyl-5-[(pyridin-2-yl)methoxy]pyrazolo[1,5-a]pyridine-3-carboxamide], the IC50 was over 20 µM.

In turn, `Cc1nn2ccc(OCc3ccccn3)cc2c1C(=O)N[C@H](CO)CC(N)=O` [Cpd 076 - En1, (S)-4-hydroxy-3-({2-methyl-5-[(pyridin-2-yl)methoxy]pyrazolo[1,5-a]pyridin-3-yl}formamido)butanamide] came in with an IC50 of over 20 µM.

Molecule `Cc1nn2ccc(OCc3ccccn3)cc2c1C(=O)NC(CO)CC(N)=O` (stereo not shown) [Cpd 076 - En2] came in with a half-maximal inhibitory concentration (IC50) of over 20 µM.

Molecule `Cc1nn2ccc(OCc3ccccn3)cc2c1C(=O)NC(CO)C1CCOCC1` (stereo not shown) [Cpd 077 - En2] came in with an IC50 of over 20 µM.

As for `Cc1nn2ccc(OCc3ccccn3)cc2c1C(=O)NC(CO)Cc1ncccn1` (stereo not shown) [Cpd 079 - En 1], the 50% inhibitory concentration (IC50) is over 20 µM.

By IC50 is commonly meant the concentration that gives 50% inhibition. Lower therefore signals greater potency in that assay.
